Data from US20050227977A1, “Substituted 1,2,5,10-tetrahydropyridazino [4,5-b]quinoline-1,10-dione compounds and methods for the treatment of pain” (AstraZeneca AB, priority 1999, published 2005).
pKi: −log10 of the molar value.

Target: T1, NMDA receptor glycine site (Rattus norvegicus, UniProt P35439)
T1 construct: tissue Analytical Biological Services Inc; host or cells: rat brain membranes (cerebral cortex and hippocampus, male Sprague Dawley rats)
Assay: Test A: Inhibition of binding of [3H]-MDL105,519
Conditions: inhibition of 1.2 nM [3H]MDL105,519 binding to brain membranes; table does not say rat or human membranes
Description: Test A: Inhibition of Binding of [^3H]-MDL105,519:
Binding of compounds to the NMDA receptor glycine site may be assessed by measuring the ability of test compounds to inhibit the binding of tritiated MDL105,519 to brain membranes bearing the receptor.
Briefly, fresh brain tissue including cerebral cortex and hippocampus from male Sprague Dawley rats was homogenized in 0.32 M sucrose and centrifuged at low speed to separate cellular membranes from other cellular components. The membranes were then washed 3 times using deionized water, followed by treatment with 0.04% Triton X-100. Finally, membranes were washed six times in 50 mM Tris citrate buffer, pH 7.4, and frozen at −80° C. until use.
[^3H]MDL105,519 (72 Ci/mmol) was purchased from Amersham. Cold MDL105,519 was purchased from Sigma/RBI. […] On the day of the experiment, brain membranes were thawed at room temperature and suspended in 50 mM tris acetate buffer, pH 7.4 (“TAB”). Seventy-five micro grams per milliliter protein (by using the BioRad dye) were used for competition binding. The experiments were carried out using 96-well plates. […] Non specific binding was determined by using 100 μM of unlabeled MDL105,519. […] After incubation, unbound [^3H]MDL105,519 was removed by filtration onto GF/B Unifilter plates using a Packard harvester. Filters were washed four times with ice cold TAB (total of 1.2 mL buffer). The plates were dried overnight at room temperature and bound radioactivity was measured on a Packard TopCount after the addition of 45 μL per well of the MICROSCINT O.
Human Brain Membranes: Human brain membranes were obtained from Analytical Biological Services Inc., and assays were performed as described for rat membranes.
Data analysis: Data was analyzed using a Microsoft Excel spreadsheet and GraphPad Prizm software and potency of compounds is expressed as the Ki (nM).

SMILES: COc1ccc(Cn2nc(O)c3[nH]c4cc(Cl)ccc4c(=O)c3c2=O)cc1OC(=O)N(C)C [Ex. 14, Dimethyl-carbamic acid 5-(7-chloro-4-hydroxy-1,10-dioxo-5,10-dihydro-1H-pyridazino[4,5-b]quinolin-2-ylmethyl)-2-methoxy-phenyl ester]
- pKi: 6.78

SMILES: Cc1cc(Cn2nc(O)c3[nH]c4cc(Cl)ccc4c(=O)c3c2=O)ccc1OC(=O)N(C)c1ccccc1 [Ex. 13, Methyl-phenyl-carbamic acid 4-(7-chloro-4-hydroxy-1,10-dioxo-5,10-dihydro-1H-pyridazino[4,5-b]quinolin-2-ylmethyl)-2-methyl-phenyl ester]
- pKi: 7.23

SMILES: COc1ccc(Cn2nc(O)c3[nH]c4cc(Cl)ccc4c(=O)c3c2=O)cc1OC(=O)N1CCOCC1 [Ex. 16, Morpholine-4-carboxylic acid 5-(7-chloro-4-hydroxy-1,10-dioxo-5,10-dihydro-1H-pyridazino[4,5-b]quinolin-2-ylmethyl)-2-methoxy-phenyl ester]
- pKi: 7.06

SMILES: Cc1cc(Cn2nc(O)c3[nH]c4cc(Cl)ccc4c(=O)c3c2=O)ccc1OC(=O)N1CCOCC1 [Ex. 12, Morpholine-4-carboxylic acid 4-(7-chloro-4-hydroxy-1,10-dioxo-5,10-dihydro-1H-pyridazino[4,5-b]quinolin-2-ylmethyl)-2-methyl-phenyl ester]
- pKi: 6.57
